# ChEMBL document CHEMBL1201862, “PubChem BioAssay data set” (2004)
#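 Protocol summary: plate cells (96-well), add compound at 5 concentrations, incubate 48 h, interpolate endpoints linearly. GI50: concentration for 50% inhibition of growth.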 Calls of active or inactive are those of the source. No stated cut-off is given here; in the data, active = GI50 up to about 1.1 µM and inactive = higher.
# Experiments:
# Test in all cases: NCI-60 cell line screen, 48 h
# BT-549 = test system: BT-549
# SF-295 = test system: SF-295
# MOLT-4 = test system: MOLT-4
# SK-MEL-28 = test system: SK-MEL-28
# HOP-62 = test system: HOP-62
# CCRF-CEM = test system: CCRF-CEM
# LOX IMVI = test system: LOX IMVI
# TK-10 = test system: TK-10
# SK-MEL-5 = test system: SK-MEL-5
# SN12C = test system: SN12C
# SK-MEL-2 = test system: SK-MEL-2
# HT-29 = test system: HT-29
# UO-31 = test system: UO-31
# U-251 = test system: U-251
# KM12 = test system: KM12
# UACC-257 = test system: UACC-257
# HCT-116 = test system: HCT-116
# SF-539 = test system: SF-539
# HCT-15 = test system: HCT-15
# T47D = test system: T47D
SMILES,GI50 (BT-549),GI50 (SF-295),GI50 (MOLT-4),GI50 (SK-MEL-28),GI50 (HOP-62),GI50 (CCRF-CEM),GI50 (LOX IMVI),GI50 (TK-10),GI50 (SK-MEL-5),GI50 (SN12C),GI50 (SK-MEL-2),GI50 (HT-29),GI50 (UO-31),GI50 (U-251),GI50 (KM12),GI50 (UACC-257),GI50 (HCT-116),GI50 (SF-539),GI50 (HCT-15) [µM],GI50 (T47D)
O=C1C=CC2(C=C1)CCC(=O)O2,18.5 µM (inactive),19.8 µM (inactive),> 100 µM (inactive),16 µM (inactive),20.2 µM (inactive),5.82 µM (inactive),4.83 µM (inactive),11.9 µM (inactive),16.3 µM (inactive),16.1 µM (inactive),16.1 µM (inactive),22.9 µM (inactive),15.1 µM (inactive),7.18 µM (inactive),15.3 µM (inactive),18.7 µM (inactive),14.8 µM (inactive),12.2 µM (inactive),7.52,
Cc1ccc(S(=O)(=O)Nn2c(S)c(C#N)c(-c3ccc([N+](=O)[O-])cc3)c(C#N)c2=O)cc1,12.8 µM (inactive),49.4 µM (inactive),17.3 µM (inactive),32.6 µM (inactive),98.2 µM (inactive),23.2 µM (inactive),14.8 µM (inactive),65.3 µM (inactive),12 µM (inactive),19.1 µM (inactive),23 µM (inactive),32.5 µM (inactive),,29 µM (inactive),31.6 µM (inactive),40.8 µM (inactive),16.9 µM (inactive),16.7 µM (inactive),17.3,
O=C(/C=C1/Nc2ccc([N+](=O)[O-])cc2N/C1=C/C(=O)c1ccc(Cl)cc1)c1ccc(Cl)cc1,> 100 µM (inactive),91 µM (inactive),> 100 µM (inactive),,> 100 µM (inactive),34.4 µM (inactive),,> 100 µM (inactive),33.3 µM (inactive),17.7 µM (inactive),13.6 µM (inactive),> 100 µM (inactive),> 100 µM (inactive),> 100 µM (inactive),> 100 µM (inactive),> 100 µM (inactive),15 µM (inactive),> 100 µM (inactive),24.2,> 100 µM (inactive)
COc1ccc(/C(C)=N/NC(=O)c2ccncc2)c(OC)c1,> 10 µM (inactive),,> 10 µM (inactive),> 10 µM (inactive),> 10 µM (inactive),> 10 µM (inactive),> 10 µM (inactive),> 10 µM (inactive),> 10 µM (inactive),> 10 µM (inactive),,,> 10 µM (inactive),> 10 µM (inactive),> 10 µM (inactive),> 10 µM (inactive),,> 10 µM (inactive),> 10,> 10 µM (inactive)
Cc1cccc(NS(=O)(=O)c2ccc3c(c2)OCCOCCOCCOCCO3)c1,> 100 µM (inactive),> 100 µM (inactive),63 µM (inactive),> 100 µM (inactive),> 100 µM (inactive),> 100 µM (inactive),,> 100 µM (inactive),> 100 µM (inactive),> 100 µM (inactive),,> 100 µM (inactive),> 100 µM (inactive),,> 100 µM (inactive),> 100 µM (inactive),> 100 µM (inactive),> 100 µM (inactive),> 100,43.5 µM (inactive)
CCCNC(=O)N(C)C(=O)N1N=C(c2ccccc2)C1c1ccccc1 (configuration not stated),,64.7 µM (inactive),23.7 µM (inactive),> 100 µM (inactive),> 100 µM (inactive),17.7 µM (inactive),75.5 µM (inactive),> 100 µM (inactive),87.3 µM (inactive),37 µM (inactive),> 100 µM (inactive),,50.4 µM (inactive),89.9 µM (inactive),40.5 µM (inactive),82.6 µM (inactive),51.8 µM (inactive),> 100 µM (inactive),45.3,> 100 µM (inactive)
O=C(O)C/N=C(\C(=N\CC(=O)O)c1ccccc1)c1ccccc1,> 100 µM (inactive),> 100 µM (inactive),> 100 µM (inactive),> 100 µM (inactive),> 100 µM (inactive),,> 100 µM (inactive),> 100 µM (inactive),,> 100 µM (inactive),> 100 µM (inactive),,90.2 µM (inactive),> 100 µM (inactive),> 100 µM (inactive),> 100 µM (inactive),> 100 µM (inactive),,> 100,68.5 µM (inactive)
CCN(CC)c1ccc(C2NC(=O)c3ccccc3N2)cc1 (configuration not stated),> 100 µM (inactive),3.01 µM (inactive),3.55 µM (inactive),> 100 µM (inactive),5.7 µM (inactive),0.641 µM (active),2.95 µM (inactive),> 100 µM (inactive),1.15 µM (inactive),9.98 µM (inactive),,2.31 µM (inactive),> 24.5 µM (inactive),4.34 µM (inactive),2.15 µM (inactive),> 100 µM (inactive),1.48 µM (inactive),2.71 µM (inactive),1.13,> 100 µM (inactive)
O=C(CC(NC(=O)OCc1ccccc1)C(=O)NC1Cc2ccccc2C1=O)OCc1ccccc1 (configuration not stated),> 100 µM (inactive),> 100 µM (inactive),> 100 µM (inactive),> 100 µM (inactive),> 100 µM (inactive),,,> 100 µM (inactive),> 100 µM (inactive),> 100 µM (inactive),> 100 µM (inactive),> 100 µM (inactive),> 100 µM (inactive),> 100 µM (inactive),> 100 µM (inactive),86.5 µM (inactive),,> 100 µM (inactive),> 100,
CC(C)(C)OC(=O)NC(CCCCNC(=O)OCc1ccccc1)C(=O)NC(CCCCNC(=O)OCc1ccccc1)C(=O)ON1C(=O)CCC1=O (configuration not stated),> 100 µM (inactive),,> 100 µM (inactive),> 100 µM (inactive),> 100 µM (inactive),> 100 µM (inactive),,> 100 µM (inactive),> 100 µM (inactive),> 100 µM (inactive),> 100 µM (inactive),> 100 µM (inactive),> 100 µM (inactive),> 100 µM (inactive),> 100 µM (inactive),> 100 µM (inactive),> 100 µM (inactive),,> 100,> 100 µM (inactive)
O=c1[nH]nc(-c2ccccc2)n1/N=C/c1ccncc1,32.6 µM (inactive),> 100 µM (inactive),> 100 µM (inactive),> 100 µM (inactive),> 100 µM (inactive),> 100 µM (inactive),> 100 µM (inactive),> 100 µM (inactive),44.7 µM (inactive),> 100 µM (inactive),,> 100 µM (inactive),46.3 µM (inactive),> 100 µM (inactive),> 100 µM (inactive),> 100 µM (inactive),53.6 µM (inactive),61.8 µM (inactive),> 100,> 100 µM (inactive)
N#CCOc1ccc(/C=C/C(=O)c2ccc(Cl)cc2)cc1,3.62 µM (inactive),21.4 µM (inactive),19.6 µM (inactive),33.7 µM (inactive),25.2 µM (inactive),26.5 µM (inactive),15.6 µM (inactive),28.5 µM (inactive),20.9 µM (inactive),39.8 µM (inactive),,50.6 µM (inactive),32.8 µM (inactive),25.8 µM (inactive),22.4 µM (inactive),32 µM (inactive),6.65 µM (inactive),19.2 µM (inactive),77.6,19.9 µM (inactive)
